Measured values from publication PMC5909127, “Optimization of a “bump-and-hole” approach to allele-selective BET bromodomain inhibition” (Chemical Science, 2018).
Like-named read-outs stand apart in the source and are kept apart here.

Columns and labels:
BRDT BD2 L/V = BRDT BD2 L/V (Homo sapiens, UniProt Q58F21, L306V); experiment: competitive AlphaLISA; assay type: binding
Intrinsic Clearance = conditions: mouse liver microsomes
BRD4 BD1 L/V = BRD4 BD1 L/V (Homo sapiens, UniProt O60885, L94V); experiment: competitive AlphaLISA; assay type: binding; conditions: AlphaLISA pIC50 Value BRD4 BD1 L/V
Plasma Half-life = conditions: BALB/c, mouse, pH 7.4
BRD2 BD1 L/V = BRD2 BD1 L/V (Homo sapiens, UniProt P25440, L110V); experiment: competitive AlphaLISA; assay type: binding
Chain of BRD2 BD1 L/V (P25440 71-176 L110V limits assumed): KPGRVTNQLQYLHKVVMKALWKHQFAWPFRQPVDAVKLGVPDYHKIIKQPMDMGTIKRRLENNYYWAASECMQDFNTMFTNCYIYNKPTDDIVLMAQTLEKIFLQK

[1] = molecular target: WT BET bromodomains (BD1 and BD2 of BRD2, BRD3 and BRD4); experiment: competitive AlphaLISA (Bio-JQ1 displacement); assay type: binding, human; conditions: mean and SD of all somatic bromodomains; active enantiomer concentration
BRD4 BD1 WT = BRD4 BD1 WT (Homo sapiens, UniProt O60885); experiment: competitive AlphaLISA; assay type: binding; conditions: AlphaLISA pIC50 Value BRD4 BD1 WT
BRD2 BD1 WT = BRD2 BD1 WT (Homo sapiens, UniProt P25440); experiment: competitive AlphaLISA; assay type: binding
Chain of BRD2 BD1 WT (P25440 71-176): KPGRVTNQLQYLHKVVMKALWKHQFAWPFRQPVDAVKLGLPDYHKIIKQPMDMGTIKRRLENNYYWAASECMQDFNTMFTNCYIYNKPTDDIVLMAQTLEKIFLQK

BRD3 BD1 WT = BRD3 BD1 WT (Homo sapiens, UniProt Q15059); experiment: competitive AlphaLISA; assay type: binding
Chain of BRD3 BD1 WT (Q15059 24-144): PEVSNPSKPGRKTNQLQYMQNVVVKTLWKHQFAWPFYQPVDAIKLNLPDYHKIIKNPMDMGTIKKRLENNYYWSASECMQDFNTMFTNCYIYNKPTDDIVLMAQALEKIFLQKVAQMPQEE

BRD3 BD1 L/V = BRD3 BD1 L/V (Homo sapiens, UniProt Q15059, L70V); experiment: competitive AlphaLISA; assay type: binding
Chain of BRD3 BD1 L/V (Q15059 24-144 L70V limits assumed): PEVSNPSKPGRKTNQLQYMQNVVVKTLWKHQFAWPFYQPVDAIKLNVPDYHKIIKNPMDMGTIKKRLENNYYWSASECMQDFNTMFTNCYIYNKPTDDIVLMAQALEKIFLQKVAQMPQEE

BRD4 BD2 WT = BRD4 BD2 WT (Homo sapiens, UniProt O60885); experiment: competitive AlphaLISA; assay type: binding
BRD2 BD2 WT = BRD2 BD2 WT (Homo sapiens, UniProt P25440); experiment: competitive AlphaLISA; assay type: binding
Chain of BRD2 BD2 WT (P25440 344-455): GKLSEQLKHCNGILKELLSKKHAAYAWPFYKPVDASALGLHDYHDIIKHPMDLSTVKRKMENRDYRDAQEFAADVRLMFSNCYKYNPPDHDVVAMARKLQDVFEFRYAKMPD

BRD2 BD2 L/V = BRD2 BD2 L/V (Homo sapiens, UniProt P25440, L383V); experiment: competitive AlphaLISA; assay type: binding
Chain of BRD2 BD2 L/V (P25440 344-455 L383V): as the sequence (P25440 344-455) above, with L40V counted along it

BRD3 BD2 L/V = BRD3 BD2 L/V (Homo sapiens, UniProt Q15059, L345V); experiment: competitive AlphaLISA; assay type: binding
Chain of BRD3 BD2 L/V (Q15059 306-416 L345V limits assumed): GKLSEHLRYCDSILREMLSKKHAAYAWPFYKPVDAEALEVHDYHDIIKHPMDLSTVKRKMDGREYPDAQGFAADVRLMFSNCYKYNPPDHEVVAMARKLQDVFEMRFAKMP

BRD3 BD2 WT = BRD3 BD2 WT (Homo sapiens, UniProt Q15059); experiment: competitive AlphaLISA; assay type: binding
Chain of BRD3 BD2 WT (Q15059 306-416): as the sequence (Q15059 306-416 L345V limits assumed) above, with V40L counted along it

[2] = test system: L/V BET bromodomains (BD1 and BD2 of BRD2, BRD3 and BRD4); experiment: competitive AlphaLISA (Bio-JQ1 displacement); assay type: binding, human; conditions: for AlphaLISA pIC50 ± SD Δ: L/V minus WT; for AlphaLISA pIC50 ± SD L/V: mean and SD of all somatic bromodomains, active enantiomer concentration
BRDT BD1 L/V = BRDT BD1 L/V (Homo sapiens, UniProt Q58F21, L63V); experiment: competitive AlphaLISA; assay type: binding
BRD4 BD2 L/V = BRD4 BD2 L/V (Homo sapiens, UniProt O60885, L387V); experiment: competitive AlphaLISA; assay type: binding
BRDT BD1 WT = BRDT BD1 WT (Homo sapiens, UniProt Q58F21); experiment: competitive AlphaLISA; assay type: binding
BRDT BD2 WT = BRDT BD2 WT (Homo sapiens, UniProt Q58F21); experiment: competitive AlphaLISA; assay type: binding
in vitro = conditions: PAMPA, pH 7.4

Row | SMILES | IC50 (BRDT BD2 L/V) [µM] | CL int (Intrinsic Clearance) [ml min^–1 g^–1] | IC50 (BRD4 BD1 L/V) [µM] | half-life at 50 µM (Plasma Half-life) [h] | IC50 (BRD2 BD1 L/V) [µM] | AlphaLISA pIC50 ± SD WT [1] | IC50 (BRD4 BD1 WT) [µM] | IC50 (BRD2 BD1 WT) [µM] | IC50 (BRD3 BD1 WT) [µM] | IC50 (BRD3 BD1 L/V) [µM] | IC50 (BRD4 BD2 WT) [µM] | IC50 (BRD2 BD2 WT) [µM] | IC50 (BRD2 BD2 L/V) [µM] | IC50 (BRD3 BD2 L/V) [µM] | IC50 (BRD3 BD2 WT) [µM] | AlphaLISA pIC50 ± SD Δ [2] | AlphaLISA pIC50 ± SD L/V [2] | IC50 (BRDT BD1 L/V) [µM] | IC50 (BRDT BD1 WT) [µM] | IC50 (BRDT BD2 WT) [µM] | other results
1 | CC[C@@H](C(=O)N(CC)CC)[C@@H]1N=C(c2ccc(Cl)cc2)c2cc(OC)ccc2-n2c(C)nnc21 (relative stereo) [Compound 20] | 6.31 | >50 | 1.26 | > 3 | 2 | 4.6 ± 0.1 | 25.1 | 31.6 | 20 | 0.501 | 31.6 | 15.8 | 1.58 | 1.58 | 25.1 | 1.2 ± 0.2 | 5.8 ± 0.2 | 6.31 | 39.8 | 39.8 | IC50 (BRD4 BD2 L/V): 3.16 µM
2 | CCNC(=O)[C@H](CC)[C@@H]1N=C(c2ccc(Cl)cc2)c2ccc(OC)cc2-n2c(C)nnc21 (relative stereo) [Compound 22] | 20 | 2.1 | 7.94 | > 3 | 6.31 | <4.0 | 63.1 | > 100 | 63.1 | 3.16 | > 100 | > 100 | 7.94 | 3.98 | > 100 | >1.2 | 5.2 ± 0.2 | 20 | > 100 | > 100 | Papp (in vitro): 5.9 ×10⁻⁶ cm/s
3 | COC(=O)CC1N=C(c2ccc(Cl)cc2)c2cc(OC)ccc2-n2c(C)nnc21 (stereo not shown) [Compound 1] | 1 | <0.5 | – | 0.9 | – | – | – | 0.316 | 0.126 | 0.0631 | – | 0.316 | 0.316 | 0.501 | – | – | – | – | 0.501 | – | Papp (in vitro): 14.9 ×10⁻⁶ cm/s
4 | CC[C@@H](C(=O)OC(C)(C)C)[C@@H]1N=C(c2ccc(Cl)cc2)c2ccc(OC)cc2-n2c(C)nnc21 [Compound 25] | – | 31.0 | 7.94 | > 3 | 10 | 4.6 ± 0.1 | 15.8 | 39.8 | 20 | 5.01 | 25.1 | 20 | – | 10 | 25.1 | 0.4 ± 0.2 | 5.0 ± 0.2 | – | 25.1 | 39.8 | IC50 (BRD4 BD2 L/V): 20 µM
5 | CC[C@@H](C(=O)OC(C)(C)C)[C@@H]1N=C(c2ccc(Cl)cc2)c2cc(OC)ccc2-n2c(C)nnc21 [Compound 23] | 2.51 | 30.7 | 0.794 | > 3 | 1.58 | 5.3 ± 0.1 | 5.01 | 5.01 | 2.51 | 0.398 | 6.31 | 5.01 | 1 | 0.794 | 5.01 | 0.7 ± 0.1 | 6.0 ± 0.2 | 2.51 | 6.31 | 6.31 | IC50 (BRD4 BD2 L/V): 1.58 µM
6 | Cc1sc2c(c1C)C(c1ccc(Cl)cc1)=N[C@@H](CC(=O)OC(C)(C)C)c1nnc(C)n1-2 [(+)JQ1, reference compound] | – | 7.5 | – | > 3 | – | – | – | – | – | – | – | – | – | – | – | –0.1 ± 0.1 | – | – | – | – | –
7 | C=CC[C@@H](C(=O)OC(C)(C)C)[C@@H]1N=C(c2ccc(Cl)cc2)c2cc(OC)ccc2-n2c(C)nnc21 [Compound 24] | 1.58 | 39.1 | – | > 3 | 1.26 | 5.3 ± 0.1 | 5.01 | 5.01 | 3.98 | 0.316 | 3.98 | 7.94 | 0.501 | 0.794 | 6.31 | 0.9 ± 0.2 | 6.2 ± 0.2 | 2 | 7.94 | 10 | IC50 (BRD4 BD2 L/V): 1 µM
8 | COC(=O)CC1N=C(c2ccc(Cl)cc2)c2ccc(OC)cc2-n2c(C)nnc21 (stereo not shown) [Compound 2] | 3.16 | 1.7 | 1 | 1.12 | 1.58 | 5.8 ± 0.2 | 1 | 2 | – | 0.501 | 2.51 | 2.51 | 2 | 1 | 2.51 | 0.1 ± 0.1 | 5.9 ± 0.2 | 1.58 | 2 | 3.98 | IC50 (BRD4 BD2 L/V): 2.51 µM
9 | CCN(CC)C(=O)[C@H](C)[C@@H]1N=C(c2ccc(Cl)cc2)c2cc(OC)ccc2-n2c(C)nnc21 (relative stereo) [Compound 19] | 3.16 | >50 | 1.26 | > 3 | 1 | 4.9 ± 0.2 | – | – | 5.01 | 0.398 | 25.1 | 25.1 | 1 | 0.501 | – | 1.2 ± 0.2 | 6.1 ± 0.2 | 3.98 | 39.8 | 25.1 | IC50 (BRD4 BD2 L/V): 1.26 µM
10 | CCNC(=O)C[C@@H]1N=C(c2ccc(Cl)cc2)c2cc(OC)ccc2-n2c(C)nnc21 [I-BET762, reference compound] | – | – | – | – | – | – | – | – | – | – | – | – | – | – | – | – | – | – | – | – | IC50 (BRDT BD1 L/V; read-out: AlphaLISA pIC50 Value BRDT BD1 L/V (converted)): 1 µM
11 | CCC[C@@H](C(=O)OC)[C@@H]1N=C(c2ccc(Cl)cc2)c2cc(OC)ccc2-n2c(C)nnc21 (relative stereo) [Compound 6] | – | 5.2 | 7.94 | > 3 | 10 | 4.5 ± 0.2 | 25.1 | 31.6 | 20 | 6.31 | 63.1 | > 100 | 10 | 10 | 20 | 0.6 ± 0.2 | 5.0 ± 0.1 | 25.1 | 31.6 | – | selectivity (L/V over WT, AlphaLISA) [2]: less than 10 fold
12 | C=CC[C@@H](C(=O)OC(C)(C)C)[C@@H]1N=C(c2ccc(Cl)cc2)c2ccc(OC)cc2-n2c(C)nnc21 [Compound 26] | 2.51 | 39.4 | 1.58 | > 3 | 2.51 | 5.2 ± 0.2 | 6.31 | 7.94 | 3.16 | 1.26 | 10 | 6.31 | 1.58 | 1.26 | 5.01 | 0.5 ± 0.1 | 5.8 ± 0.2 | 3.98 | 10 | 10 | IC50 (BRD4 BD2 L/V): 3.16 µM
13 | COC(=O)[C@H](C)[C@@H]1N=C(c2ccc(Cl)cc2)c2cc(OC)ccc2-n2c(C)nnc21 (relative stereo) [Compound 3] | 0.0794 | 0.7 | – | > 3 | 0.0631 | 6.2 ± 0.3 | – | 2 | 0.251 | 0.0316 | – | 1 | – | 0.0316 | – | 1.2 ± 0.2 | – | – | 2 | 1.26 | Papp (in vitro): 18.5 ×10⁻⁶ cm/s
